Reference: patent publication US6348445B1, “Biologically active peptides with reduced toxicity in animals and a method for preparing same” (priority 1992, dated 2002)
Where no end group is shown, it is not given here.

Test: MTD and LD50, single intraperitoneal administration
Type: in vivo, mice
Conditions: for No. of Survivors Day 1 / No. of Survivors Day 2 / No. of Survivors Day 3 / No. of Survivors Day 4 / No. of Survivors Day 5 / No. of Survivors Day 6 / No. of Survivors Day 7 / No. of Survivors Day 8 / No. of Survivors Day 11: 4 injected
Procedure: Determinations of a maximal tolerated dose (MTD) of a single intravenous (i.v.) administration or intraperitoneal (i.p.) administration of MSI-344 or MSI-1857 in 100 CD-1®BR mice were done. The MTD of a single intravenous (i.v.) administration was 10 mg/kg for MSI-344 and 60 mg/kg for MSI-1857. The MTD of a single intraperitoneal (i.p.) administration was less than 20 mg/kg for MSI-344 and between 50 and 100 mg/kg for MSI-1857.
To determine estimates of MTDs and LD50s of MSI-344 and MSI-1857 administered intravenously or intraperitoneally as a single bolus in mice.
A 5 mg/mL solution of MSI-344 was made in saline (0.9% sodium chloride injection USP, Abbott, North Chicago, Ill.) corrected for peptide content. Solutions of MSI-344 at concentrations of 4, 3, 2, 1.5, 1, and 0.5 mg/mL were made by diluting the 5 mg/mL solution using saline as diluent. (Errors were made in solution preparation of the 4, 3, and 2 mg/mL solutions and results from groups with animals doses with these solutions, i.e. groups 12, 13, and 14, were eliminated from study analysis). A 20 mg/mL solution of MSI-1857 was made in saline. Solutions of MSI-1857 at concentrations of 15, 10, 8, 6, and 5 mg/mL were made by diluting the 20 mg/mL solution using saline as diluent.
Another 5 mg/mL solution of MSI-344 was made in saline corrected for peptide content. Solutions of 4, 3 and 2 mg/mL were made by diluting the 5 mg/mL solution using saline as diluent. A 15 mg/mL solution of MSI-1857 in saline was made corrected for peptide content. A 10 mg/mL solution was made by diluting the 15 mg/mL solution with saline.
Mice (four mice per dose group) were intravenously or intraperitoneally administered a single bolus of MSI-344 or MSI-1857 using an injection volume of 10 mL/kg of the appropriate solution concentration. If the first two mice in a group died immediately (within 10 secs) after administration of a dose then no other mice injected with this dose of this compound (for ethical reasons). Survival was monitored daily for at least eight days post-administration. Study designs are presented in Tables IX and X. Toxicity Study # 262 was a supplement to Toxicity Study #261.

[1] = Tox Study 262 group 2, 50 mg/kg IP
[2] = Tox Study 262 group 3, 40 mg/kg IP
[3] = Tox Study 262 group 4, 30 mg/kg IP
[4] = Tox Study 262 group 5, 20 mg/kg IP
[5] = Tox Study #261 group 11, 50 mg/kg IP
[6] = Tox Study #261 group 12, dose TBD (solution error, eliminated from analysis) IP
[7] = Tox Study #261 group 13, dose TBD (solution error, eliminated from analysis) IP
[8] = Tox Study #261 group 14, dose TBD (solution error, eliminated from analysis) IP

GIGKFLKKAKKFGKAFVKILKK [MSI-344]
No. of Survivors Day 1 [1]: 0
No. of Survivors Day 2 [1]: 0
No. of Survivors Day 3 [1]: 0
No. of Survivors Day 4 [1]: 0
No. of Survivors Day 5 [1]: 0
No. of Survivors Day 6 [1]: 0
No. of Survivors Day 7 [1]: 0
No. of Survivors Day 8 [1]: 0
No. of Survivors Day 11 [1]: 0
No. of Survivors Day 1 [2]: 0
No. of Survivors Day 2 [2]: 0
No. of Survivors Day 3 [2]: 0
No. of Survivors Day 4 [2]: 0
No. of Survivors Day 5 [2]: 0
No. of Survivors Day 6 [2]: 0
No. of Survivors Day 7 [2]: 0
No. of Survivors Day 8 [2]: 0
No. of Survivors Day 11 [2]: 0
No. of Survivors Day 1 [3]: 0
No. of Survivors Day 2 [3]: 0
No. of Survivors Day 3 [3]: 0
No. of Survivors Day 4 [3]: 0
No. of Survivors Day 5 [3]: 0
No. of Survivors Day 6 [3]: 0
No. of Survivors Day 7 [3]: 0
No. of Survivors Day 8 [3]: 0
No. of Survivors Day 11 [3]: 0
No. of Survivors Day 1 [4]: 3
No. of Survivors Day 2 [4]: 3
No. of Survivors Day 3 [4]: 3
No. of Survivors Day 4 [4]: 3
No. of Survivors Day 5 [4]: 3
No. of Survivors Day 6 [4]: 3
No. of Survivors Day 7 [4]: 3
No. of Survivors Day 8 [4]: 3
No. of Survivors Day 11 [4]: 3
No. of Survivors Day 1 [5]: 0
No. of Survivors Day 2 [5]: 0
No. of Survivors Day 3 [5]: 0
No. of Survivors Day 4 [5]: 0
No. of Survivors Day 5 [5]: 0
No. of Survivors Day 6 [5]: 0
No. of Survivors Day 7 [5]: 0
No. of Survivors Day 8 [5]: 0
No. of Survivors Day 1 [6]: 2
No. of Survivors Day 2 [6]: 1
No. of Survivors Day 3 [6]: 1
No. of Survivors Day 4 [6]: 1
No. of Survivors Day 5 [6]: 1
No. of Survivors Day 6 [6]: 1
No. of Survivors Day 7 [6]: 1
No. of Survivors Day 8 [6]: 1
No. of Survivors Day 1 [7]: 0
No. of Survivors Day 2 [7]: 0
No. of Survivors Day 3 [7]: 0
No. of Survivors Day 4 [7]: 0
No. of Survivors Day 5 [7]: 0
No. of Survivors Day 6 [7]: 0
No. of Survivors Day 7 [7]: 0
No. of Survivors Day 8 [7]: 0
No. of Survivors Day 1 [8]: 2
No. of Survivors Day 2 [8]: 1
No. of Survivors Day 3 [8]: 1
No. of Survivors Day 4 [8]: 1
No. of Survivors Day 5 [8]: 1
No. of Survivors Day 6 [8]: 1
No. of Survivors Day 7 [8]: 1
No. of Survivors Day 8 [8]: 1
LD50 (mouse, in vivo, ip, CD-1 mice, estimated from dose response curves): 23.5 mg/kg
MTD (mouse, in vivo, ip, CD-1 mice, read-out: MTD of a single intraperitoneal (i.p.) administration): < 20 mg/kg
